Assay results reported in patent publication US10308620B2, “Muscarinic M1 receptor positive allosteric modulators” (SUVEN LIFE SCIENCES LIMITED, priority 2015, dated 2019).
Counter-ions that a name gives are not always drawn.

Target: recombinant human Muscarinic M1 receptor (Homo sapiens (Human), UniProt P11229)
Assay: Allosteric potency EC50, CHO cells with pCRE-Luc reporter, in presence of EC20 of acetylcholine
Format: cell-based
Conditions: 4 hours
Protocol: Determination of Allosteric Potency EC50 Values for Muscarinic M1 Receptor:
A stable CHO cell line expressing recombinant human Muscarinic M1 receptor and pCRE-Luc reporter system was used for cell-based assay. The assay offers a non-radioactive based approach to determine binding of a compound to GPCRs. In this specific assay, the level of intracellular cyclic AMP which is modulated by activation or inhibition of the receptor is measured. The recombinant cells harbor luciferase reporter gene under the control of cAMP response element.
The above cells were grown in 96 well clear bottom white plates in Hams F12 medium containing 10% fetal bovine serum (FBS). Prior to the addition of compounds or standard agonist, cells were serum starved overnight. Increasing concentrations of test compounds were added along with EC20 of acetylcholine in OptiMEM medium to the cells. The incubation was continued at 37° C. in CO2 incubator for 4 hours. Medium was removed and cells were washed with phosphate buffered saline. The cells were lysed and luciferase activity was measured in a Luminometer. Luminescence units were plotted against the compound concentrations using Graphpad software. EC50 values of the compounds were defined as the concentration required in stimulating the luciferase activity by 50% in presence of EC20 of acetylcholine.

recombinant human Muscarinic M1 receptor, sequence (P11229 whole entry): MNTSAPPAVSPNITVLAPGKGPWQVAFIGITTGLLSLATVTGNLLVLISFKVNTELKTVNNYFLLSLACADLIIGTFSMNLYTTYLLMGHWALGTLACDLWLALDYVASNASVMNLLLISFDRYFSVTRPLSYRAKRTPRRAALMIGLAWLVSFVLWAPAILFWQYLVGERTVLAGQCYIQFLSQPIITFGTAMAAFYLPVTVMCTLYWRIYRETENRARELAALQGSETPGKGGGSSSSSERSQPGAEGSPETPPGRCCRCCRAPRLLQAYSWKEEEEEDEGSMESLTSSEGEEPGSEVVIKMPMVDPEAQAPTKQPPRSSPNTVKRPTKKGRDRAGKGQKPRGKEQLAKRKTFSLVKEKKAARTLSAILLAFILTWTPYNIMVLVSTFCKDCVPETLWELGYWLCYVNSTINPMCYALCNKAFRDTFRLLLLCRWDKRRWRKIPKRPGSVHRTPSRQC

SMILES	EC50 [µM]
O=C(Nc1ccccc1CO)C1=CN(Cc2cccc(F)c2F)c2cccc(F)c2O1 [Example 44, N-(2-Hydroxymethylphenyl)-4-(2,3-difluorobenzyl)-8-fluoro-4H-benzo[1,4]oxazine-2-carboxamide]	1.28
O=C(N[C@H]1CCCC[C@@H]1O)C1=CN(Cc2ccccn2)c2ccccc2[S+]1[O-] (stereo partly drawn) [Example 96, N-(cis-1 S, 2S-2-Hydroxycyclohexyl)-4-{pyridin-2-ylmethyl}-1-oxo-4H-benzo[1,4]thiazine-2-carboxamide]	2.16
O=C(N[C@H]1CCCC[C@@H]1O)C1=CN(Cc2ccc(Cl)nc2)c2ccccc2[S+]1[O-] (stereo partly drawn) [Example 97, N-(cis-1S, 2S-2-Hydroxycyclohexyl)-4-{2-chloropyridin-5-ylmethyl}-1-oxo-4H-benzo[1,4]thiazine-2-carboxamide]	1.06
O=C(N[C@H]1CCCC[C@@H]1O)C1=CN(Cc2ccccn2)c2ccccc2O1 [Example 25, N-(cis-1S,2S-2-Hydroxycyclohexyl)-4-(pyridin-2-ylmethyl)-4H-benzo[1,4]oxazine-2-carboxamide]	0.911
O=C(N[C@H]1CCCC[C@@H]1O)C1=CN(Cc2ccccc2F)c2c(F)ccc(F)c2O1 [Example 61, N-(cis-1S,2S-2-Hydroxycyclohexyl)-4-(2-fluorobenzyl)-5,8-difluoro-4H-benzo[1,4]oxazine-2-carboxamide]	0.219
O=C(Nc1ccccc1CO)C1=CN(Cc2cccc(F)c2F)c2ccccc2O1 [Example 45, N-(2-Hydroxymethylphenyl)-4-(2,3-difluorobenzyl)-4H-benzo[1,4]oxazine-2-carboxamide]	1.58
COc1ccc(CN2C=C(C(=O)NCC(C)(C)O)Oc3ccccc32)cn1 [Example 16, N-(2-Hydroxy-2-methylpropyl)-4-(2-methoxypyridin-5-ylmethyl)-4H-benzo[1,4]oxazine-2-carboxamide]	1.35
COc1cccc(CN2C=C(C(=O)NCC(C)(C)O)Oc3ccccc32)c1 [Example 10, N-(2-Hydroxy-2-methylpropyl)-4-(3-methoxybenzyl)-4H-benzo[1,4]oxazine-2-carboxamide]	1.55
CC(C)(O)CNC(=O)C1=CN(Cc2cccc(F)c2)c2ccccc2O1 [Example 8, N-(2-Hydroxy-2-methylpropyl)-4-(3-fluorobenzyl)-4H-benzo[1,4]oxazine-2-carboxamide]	2.89
COc1ccc(CN2C=C(C(=O)N[C@H]3CCCC[C@@H]3O)Sc3ccccc32)cc1 [Example 88, N-(cis-1S,2S-2-Hydroxycyclohexyl)-4-{4-methoxybenzyl}-4H-benzo[1,4]thiazine-2-carboxamide]	0.145
O=C(N[C@H]1CCCC[C@@H]1O)C1=CN(Cc2ccccc2C(F)(F)F)c2ccccc2O1 [Example 37, N-(cis-1S, 2S-2-Hydroxycyclohexyl)-4-(2-trifluoromethylbenzyl)-4H-benzo[1,4]oxazine-2-carboxamide]	0.534
O=C(N[C@H]1CCCC[C@@H]1O)C1=CN(Cc2ccncc2)c2ccccc2S1 [Example 90, N-(cis-1S,2S-2-Hydroxycyclohexyl)-4-{pyridin-4-ylmethyl}-4H-benzo[1,4]thiazine-2-carboxamide]	0.599
O=C(N[C@H]1CCCC[C@@H]1O)C1=CN(Cc2ccccc2)c2ccccc2S1 [Example 87, N-(cis-1S,2S-2-Hydroxycyclohexyl)-4-benzyl-4H-benzo[1,4]thiazine-2-carboxamide]	0.131

More lines, now with the values ahead:

EC50 [µM]	SMILES
0.117	O=C(N[C@H]1CCCC[C@@H]1O)C1=CN(Cc2cccc(F)c2F)c2ccccc2S1 [Example 85, N-(cis-1S,2S-2-Hydroxycyclohexyl)-4-(2,3-difluorobenzyl)-4H-benzo[1,4]thiazine-2-carboxamide]
0.134	O=C(N[C@H]1CCCC[C@@H]1O)C1=CN(Cc2ccccc2F)c2cccc(F)c2O1 [Example 2, N-(cis-1S,2S-2-Hydroxycyclohexyl)-4-(2-fluorobenzyl)-8-fluoro-4H-benzo[1,4]oxazine-2-carboxamide]
0.088	O=C(N[C@H]1CCCC[C@@H]1O)C1=CN(Cc2ccnc(Cl)c2)c2cccc(F)c2O1 [Example 54, N-(cis-1S,2S-2-Hydroxycyclohexyl)-4-(2-chloropyridin-4-ylmethyl)-8-fluoro-4H-benzo[1,4]oxazine-2-carboxamide]
1.08	O=C(Nc1ccccc1CO)C1=CN(Cc2ccccc2F)c2cccc(F)c2O1 [Example 46, N-(2-Hydroxymethylphenyl)-4-(2-fluorobenzyl)-8-fluoro-4H-benzo[1,4]oxazine-2-carboxamide]
0.906	O=C(N[C@H]1CCCC[C@@H]1O)C1=CN(Cc2cccc(F)c2F)c2ccccc2[S+]1[O-] (stereo partly drawn) [Example 93, N-(cis-1S,2S-2-Hydroxycyclohexyl)-4-(2,3-difluorobenzyl)-1-oxo-4H-benzo[1,4]thiazine-2-carboxamide]
1.55	O=C(N[C@@H]1CCC[C@H]1O)C1=CN(Cc2cccc(F)c2F)c2ccccc2O1 [Example 39, N-(trans-1R,2R-2-Hydroxycyclopentyl)-4-(2,3-difluorobenzyl)-4H-benzo[1,4]oxazine-2-carboxamide]
0.179	O=C(N[C@H]1CCCC[C@@H]1O)C1=CN(Cc2ccncc2)c2cccc(F)c2O1 [Example 57, N-(cis-1S,2S-2-Hydroxycyclohexyl)-4-(pyridin-4-ylmethyl)-8-fluoro-4H-benzo[1,4]oxazine-2-carboxamide]
2.1	O=C(NC1CCNCC1F)C1=CN(Cc2cccc(F)c2F)c2cccc(F)c2O1 (centres unmarked) [Example 74, N-(3-Fluoropiperidin-4-yl)-4-(2,3-difluorobenzyl)-8-fluoro-4H-benzo[1,4]oxazine-2-carboxamide hydrochloride]
0.907	O=C(N[C@H]1CCCC[C@@H]1O)C1=CN(Cc2ccc(F)cc2)c2ccccc2O1 [Example 13, N-(cis-1S,2S-2-Hydroxycyclohexyl)-4-(4-fluorobenzyl)-4H-benzo[1,4]oxazine-2-carboxamide]
0.262	O=C(N[C@H]1CCCC[C@@H]1O)C1=CN(Cc2ccccc2Cl)c2cccc(F)c2O1 [Example 38, N-(cis-1S, 2S-2-Hydroxycyclohexyl)-4-(2-chlorobenzyl)-8-fluoro-4H-benzo[1,4]oxazine-2-carboxamide]
